Results on ten molecules are retold here after patent publication US20250215013A1, “SUBSTITUTED TRICYCLIC COMPOUNDS AS PARP INHIBITORS AND THE USE THEREOF” (IMPACT THERAPEUTICS (SHANGHAI), INC., priority 2022, published 2025).

The target of assay [1] is recombinant poly(ADP-ribose) polymerase 2 (PARP2). In words: PARP2 chemiluminescent assay. Format: biochemical. Particulars: inhibition of PARP2 enzyme activity, chemiluminescence.
Assay [2] concerns MDA-MB-436 cells. Put plainly: Growth inhibition assay against BRCA mutant human breast cancer MDA-MB-436 cell line (CCK-8). It is filed as cell-based. Particulars: Homo sapiens, MDA-MB-436, […], proliferation of MDA-MB-436 cells, 7 days.
The target in assay [3] is recombinant poly(ADP-ribose) polymerase 1 (PARP1) (Homo sapiens (Human), UniProt P09874).
Chain of recombinant poly(ADP-ribose) polymerase 1 (PARP1) (P09874 whole entry): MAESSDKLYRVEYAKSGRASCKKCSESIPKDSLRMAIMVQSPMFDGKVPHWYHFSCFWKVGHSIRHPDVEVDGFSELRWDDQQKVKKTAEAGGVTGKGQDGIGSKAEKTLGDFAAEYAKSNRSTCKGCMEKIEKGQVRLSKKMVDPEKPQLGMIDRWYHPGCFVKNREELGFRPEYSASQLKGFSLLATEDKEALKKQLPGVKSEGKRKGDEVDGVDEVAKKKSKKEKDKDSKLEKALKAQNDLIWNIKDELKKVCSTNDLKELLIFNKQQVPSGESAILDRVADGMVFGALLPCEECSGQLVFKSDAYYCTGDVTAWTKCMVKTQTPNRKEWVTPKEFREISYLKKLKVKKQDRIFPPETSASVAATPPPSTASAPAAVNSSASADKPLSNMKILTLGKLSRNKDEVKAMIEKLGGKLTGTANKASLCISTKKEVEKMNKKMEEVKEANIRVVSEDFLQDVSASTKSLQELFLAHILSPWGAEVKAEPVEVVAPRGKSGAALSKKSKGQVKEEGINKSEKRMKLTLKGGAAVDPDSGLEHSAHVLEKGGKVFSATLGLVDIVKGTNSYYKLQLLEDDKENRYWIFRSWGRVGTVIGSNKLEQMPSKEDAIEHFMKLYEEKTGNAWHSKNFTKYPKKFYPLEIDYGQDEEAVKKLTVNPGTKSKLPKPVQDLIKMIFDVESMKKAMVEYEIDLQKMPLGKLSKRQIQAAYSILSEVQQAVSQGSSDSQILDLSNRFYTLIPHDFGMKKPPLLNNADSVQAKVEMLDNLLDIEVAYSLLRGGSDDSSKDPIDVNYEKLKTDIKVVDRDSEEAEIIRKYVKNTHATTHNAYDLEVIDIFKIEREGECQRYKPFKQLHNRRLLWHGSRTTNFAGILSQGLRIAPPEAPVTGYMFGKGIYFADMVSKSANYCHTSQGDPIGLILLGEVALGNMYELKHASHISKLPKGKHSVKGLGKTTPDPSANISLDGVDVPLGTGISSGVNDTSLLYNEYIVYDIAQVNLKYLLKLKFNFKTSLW

Some results are limits rather than exact numbers.

On to `CNC(=O)c1ccc(N2CCN(Cc3ccc4c([nH]c(=O)n5ccnc45)c3F)CC2)c(F)n1` [Example 61, 8-((4-(2-fluoro-6-(methylcarbamoyl)pyridin-3-yl)piperazin-1-yl)methyl)-7-fluoroimidazo[1,2-c]quinazolin-5(6H)-one], for which the IC50 stood at 7260 nM in assay [1], 17.4 nM in assay [2] and 2.23 nM in assay [3].

For `CNC(=O)c1ccc(N2CCN(Cc3cc(F)c4c(c3)[nH]c(=O)n3cc(C)nc43)CC2)c(F)n1` [Example 137, 8-((4-(2-fluoro-6-(methylcarbamoyl)pyridin-3-yl)piperazin-1-yl)methyl)-2-methyl-10-fluoroimidazo[1,2-c]quinazolin-5(6H)-one], the half-inhibitory concentration (IC50) stood at 266 nM in assay [1], 6.85 nM in assay [2] and 2.16 nM in assay [3].

`CNC(=O)c1ccc(N2CCN(Cc3cc4[nH]c(=O)c5c(F)cnn5c4cc3F)CC2)c(Cl)n1` [Example 184, 7-((4-(2-chloro-6-(methylcarbamoyl)pyridin-3-yl)piperazin-1-yl)methyl)-3,8-difluoropyrazolo[1,5-a]quinoxalin-4(5H)-one]: the IC50 in assay [1] is 67.1 nM; in assay [2] it was 2.41 nM; in assay [3] it was 0.5 nM.

Turning to `CNC(=O)c1ccc(N2CCN(Cc3ccc4c(c3)[nH]c(=O)c3oncc34)CC2)c(C)n1` [Example 30, 7-((4-(2-methyl-6-(methylcarbamoyl)pyridin-3-yl)piperazin-1-yl)methyl)isoxazolo[5,4-c]quinolin-4(5H)-one], the figures for the IC50 in assay [1], in assay [2] and in assay [3] were greater than 10000 nM, greater than 100 nM and 138 nM, respectively.

In the case of `CNC(=O)c1ccc(N2CCN(Cc3ccc4c(c3)[nH]c(=O)c3c(C)noc34)CC2)c(C)n1` [Example 47, 7-((4-(2-methyl-6-(methylcarbamoyl)pyridin-3-yl)piperazin-1-yl)methyl)-3-methylisoxazolo[4,5-c]quinolin-4(5H)-one], the IC50 in assay [1] amounted to 504 nM; in assay [2], 12.2 nM; in assay [3], 0.86 nM.

As for `CNC(=O)c1ccc(N2CCN(Cc3ccc4c(c3)[nH]c(=O)c3c[nH]cc34)CC2)c(C)n1` [Example 34, 7-((4-(2-methyl-6-(methylcarbamoyl)pyridin-3-yl)piperazin-1-yl)methyl)-2,5-dihydro-4H-pyrrolo[3,4-c]quinolin-4-one], the half-inhibitory concentration (IC50) was 709 nM in assay [1], 5.06 nM in assay [2] and 2.52 nM in assay [3].

On to `CCNC(=O)c1ccc(N2CCN(Cc3ccc4c([nH]c(=O)n5ccnc45)c3F)CC2)c(C)n1` [Example 63, 8-((4-(2-methyl-6-(ethylcarbamoyl)pyridin-3-yl)piperazin-1-yl)methyl)-7-fluoroimidazo[1,2-c]quinazolin-5(6H)-one], for which the IC50 was greater than 10000 nM in assay [1], 53.7 nM in assay [2] and 3.86 nM in assay [3].

In the case of `CNC(=O)c1ccc(N2CCN(Cc3ccc4c(c3)[nH]c(=O)c3ncoc34)CC2)c(C)n1` [Example 12, 7-((4-(2-methyl-6-(methylcarbamoyl)pyridin-3-yl)piperazin-1-yl)methyl)oxazolo[4,5-c]quinolin-4(5H)-one], the 50% inhibitory concentration (IC50) in assay [1] was 6370 nM; in assay [2], 1.15 nM; in assay [3], 1.11 nM.

Consider `CNC(=O)c1ccc(N2CCN(Cc3ccc4c5c(c(=O)[nH]c4c3)CNC5)CC2)c(C)n1` [Example 74, 7-((4-(6-methylcarbamoyl-2-methylpyridin-3-yl)piperazin-1-yl)methyl)-1,2,3,5-tetrahydro-4H-pyrrolo[3,4-c]quinolin-4-one], for which the IC50 stood at 2980 nM in assay [1], 58.2 nM in assay [2] and 3.31 nM in assay [3].

Consider `CNC(=O)c1ccc(N2CCN(Cc3cc4[nH]c(=O)c5cn(C)nc5c4cc3F)CC2)c(C)n1` [Example 89, 7-((4-(2-methyl-6-(methylcarbamoyl)pyridin-3-yl)piperazin-1-yl)methyl)-8-fluoro-2-methyl-2,5-dihydro-4H-pyrazolo[4,3-c]quinolin-4-one], for which the IC50 turned out to be 3410 nM in assay [1], 11.9 nM in assay [2] and 5.81 nM in assay [3].
